The source of these data is patent US11179348B2, “Combination comprising pterostilbene for the treatment of cancer” (FUNDACIÓN UNIVERSIDAD CATÓLICA DE VALENCIA SAN VICENTE …, priority 2015, dated 2021).

The subject of series [1] is human breast, lung, liver, prostate, ovarian, and colorectal cancer cell lines. Briefly: Effect of Pter on growth or viability in vitro of breast, lung, liver, prostate, ovarian and colorectal tumor cell lines. It is filed as cell-based. The conditions noted are these: any of the tumor cell lines used (FIG. 15); 15 μM Pter×60 min every 24 h. An excerpt: FIG. 15. In vivo effect of Pter on human breast, lung, liver, prostate, ovarian, and colorectal cancer growth. […] For the lower and maximum Pter dose used, in each case, only the endpoint of the treatment period is shown.
Human A2058, MeWo and MelJuso melanoma cells, and mouse AtT-20 pituitary corticotroph tumor cells were from the American Type Culture Collection (ATCC). Human HEMa-LP epidermal melanocytes were from Life Technologies (Grand Island, N.Y.). Human MDA-MB-231 (triple negative: ER−, PR−, HER2−) and MCF-7 (ER+, PR+, HER2−) breast adenocarcinoma, A549 lung adenocarcinoma (NSCLC), HepG2 hepatocellular carcinoma, LNCaP (AR+) and PC-3 (AR−) prostate adenocarcinoma, SK-OV-3 epithelial ovarian carcinoma, and HT-29 and Caco-2 colorectal carcinoma cells were from the American Type Culture Collection. Cells were grown in Dulbecco's modified Eagle's medium (DMEM) (Invitrogen, San Diego, Calif.), pH 7.4, supplemented with 10% heat-inactivated FCS (Biochrom KG, Berlin, Germany), 100 units/ml penicillin and 100 μg/ml streptomycin. […] Cell numbers were determined using a Coulter Counter (Coulter Electronic Inc., Miami, Fla.). […] Cellular viability was assessed as previously reported (Mena, S. et al. Clin Cancer Res 13, 2658-2666 (2007)), by measuring trypan blue exclusion and leakage of lactate dehydrogenase activity.

For series [2], the system named is HT-29 human colon cancer. The settings on record: 20 μM Pter, 24 h, in vitro; cited from earlier work.
The test system of series [3] is AsPC-1 cells isolated from tumor-bearing mice. Kind of series: Chemosensitization of cultured AsPC-1 cells isolated from xenografts. It is filed as cell-based, human. The conditions noted are these: 72 h-cultured, PL 1 μM, Chemo 0.125 μM PAC.PBP and 25 μM GTB, Pter = in vivo pretreatment. The method, then: FIGS. 18-25. Effect of piperlongumine and I-BET762, as GSH depleting and chemosensitizing agents, in in vitro growing human melanoma, pancreatic, breast, lung, liver, prostate, ovarian, and colorectal cancer cells. Cancer cells, isolated from Pter-treated tumor-bearing mice, were cultured as indicated under Methods. Chemotherapy (0.25 μM PAC.PBP in A2058 melanoma and MDA-MB-231 breast carcinoma cells; 0.125 μM PAC.PBP and 25 μM GTB in AsPC-1 pancreatic cancer cells; 1 μM VRB and 15 μM cisPt in A459 lung carcinoma cells; 0.15 μM DXR in HepG2 hepatocellular carcinoma cells; 15 nM DCT in PC-3 prostate carcinoma cells; 0.15 μM PAC.PBP and 25 μM CarboPt in SK-OV-3 ovarian carcinoma cells; 3 μM 5-FU, 1 μM FA and 0.6 μM IRI in HT-29 colorectal carcinoma cells) was added to the cultured flasks 24 h after seeding. […]
Human A2058, MeWo and MelJuso melanoma cells, and mouse AtT-20 pituitary corticotroph tumor cells were from the American Type Culture Collection (ATCC). […] Cell numbers were determined using a Coulter Counter (Coulter Electronic Inc., Miami, Fla.). […] Cellular viability was assessed as previously reported (Mena, S. et al. Clin Cancer Res 13, 2658-2666 (2007)), by measuring trypan blue exclusion and leakage of lactate dehydrogenase activity. […]
(In xenograft studies the graft and the host belong to different species.)

The subject of series [4] is A549 human lung cancer. The settings on record: 20 μM Pter, 24 h, in vitro; cited from earlier work.
The subject of series [5] is PC-3 prostate adenocarcinoma. Kind of series: In vivo growth of PC-3 prostate cancer xenografts. On the set-up: species or system human. The settings on record: PC-3, day 21.
Series [6] deals with human melanoma cells. Briefly: Effect of pterostilbene on melanoma cell growth and viability in vitro. It is filed as cell-based.
Series [7] concerns A2058 cells isolated from tumor-bearing mice. Briefly: Chemosensitization of cultured A2058 cells isolated from xenografts. It is filed as cell-based, human. The settings on record: A2058; 72 h-cultured; PL 1 μM, Chemo 0.25 μM PAC.PBP; Pter = in vivo pretreatment. The protocol: FIG. 5. Chemosensitization effect of GSH depletion (A) or sod1-AS (B) in melanoma cells isolated from Pter-treated mice. Melanoma cells were cultured as in FIG. 1C. PAC.PBP (100 ng/ml) was added to the culture flasks 24 h after seeding. […] Data are mean values±SD for 5-6 different experiments (*p<0.01, comparing all experimental conditions vs controls).
FIGS. 18-25. Effect of piperlongumine and I-BET762, as GSH depleting and chemosensitizing agents, in in vitro growing human melanoma, pancreatic, breast, lung, liver, prostate, ovarian, and colorectal cancer cells. Cancer cells, isolated from Pter-treated tumor-bearing mice, were cultured as indicated under Methods. Chemotherapy (0.25 μM PAC.PBP in A2058 melanoma and MDA-MB-231 breast carcinoma cells; 0.125 μM PAC.PBP and 25 μM GTB in AsPC-1 pancreatic cancer cells; 1 μM VRB and 15 μM cisPt in A459 lung carcinoma cells; 0.15 μM DXR in HepG2 hepatocellular carcinoma cells; 15 nM DCT in PC-3 prostate carcinoma cells; 0.15 μM PAC.PBP and 25 μM CarboPt in SK-OV-3 ovarian carcinoma cells; 3 μM 5-FU, 1 μM FA and 0.6 μM IRI in HT-29 colorectal carcinoma cells) was added to the cultured flasks 24 h after seeding. PL (1 μM in A2058 and AsPC-1 cells; 0.5 μM in A549 and HT-29 cells; 0.2 μM in HepG2, PC-3, and SK-OV-3 cells; 0.1 μM in MDA-MB-231 cells) or I-BET762 (0.5 μM in HT-29 cells; 0.2 μM in A2058, AsPC-1, HepG2, PC-3, and SK-OV-3 cells; 0.1 μM in A549 and MDA-MB-231 cells) were added 6 h later. Data are mean values±SD for 4-5 different experiments per cell line (*p<0.05 and **p<0.01, comparing all experimental conditions versus control. PL, piperlongumine; PAC.PBP, paclitaxel protein-bound particles; GTB, gemcitabine; DXR, doxorubicin; VRB, vinorelbin; CisPt, cisplatin; docetaxel, DCT; CarboPt, carboplatin; 5-FU, 5-fluoracil; FA, folinic acid; IRI, irinotecan; 5-FU+FA+IRI=FOLFIRI).
Human A2058, MeWo and MelJuso melanoma cells, and mouse AtT-20 pituitary corticotroph tumor cells were from the American Type Culture Collection (ATCC). Human HEMa-LP epidermal melanocytes were from Life Technologies (Grand Island, N.Y.). Human MDA-MB-231 (triple negative: ER−, PR−, HER2−) and MCF-7 (ER+, PR+, HER2−) breast adenocarcinoma, A549 lung adenocarcinoma (NSCLC), HepG2 hepatocellular carcinoma, LNCaP (AR+) and PC-3 (AR−) prostate adenocarcinoma, SK-OV-3 epithelial ovarian carcinoma, and HT-29 and Caco-2 colorectal carcinoma cells were from the American Type Culture Collection. Cells were grown in Dulbecco's modified Eagle's medium (DMEM) (Invitrogen, San Diego, Calif.), pH 7.4, supplemented with 10% heat-inactivated FCS (Biochrom KG, Berlin, Germany), 100 units/ml penicillin and 100 μg/ml streptomycin. Cells were plated, at a density of 20,000 cells/cm2, and cultured at 37° C. in a humidified atmosphere with 5% CO2. Cells were harvested by incubation for 5 min with 0.05% (w/v) trypsin (Sigma, St. Louis, Mo.) in PBS (10 mM sodium phosphate, 4 mM KCl, 137 mM NaCl), pH 7.4, containing 0.3 mM EDTA, followed by the addition of 10% FCS to inactivate the trypsin. Cell numbers were determined using a Coulter Counter (Coulter Electronic Inc., Miami, Fla.). Cells were allowed to attach for 12 h before any treatment addition. Cellular viability was assessed as previously reported (Mena, S. et al. Clin Cancer Res 13, 2658-2666 (2007)), by measuring trypan blue exclusion and leakage of lactate dehydrogenase activity.
Isolation of Tumor Cells from Mouse Xenografts Using Enzymatic Digestion and a double Ficoll gradient. […]

Marks after values point to notes of the source that are not given here.

For `COc1cc(/C=C/c2ccc(O)cc2)cc(OC)c1` [Pter, trans-3,5-dimethoxy-4′-hydroxystilbene], the “cell growth or viability in vitro” value in series [1] is on record as “did not affect”. In addition, the “decrease in tumor cell viability” value in series [2] is given as ~10%; in series [4] it was ~40%. Moreover, the Viable cells in series [3] is on record as 1249 ± 206 ×10^6; in series [7], 1015 ± 144 ×10^6. Besides, the Tumor vol. in series [5] is listed as 276 ± 74* mm^3. The “pterostilbene levels in culture medium during incubation” value in series [6] (human melanoma cells, 60 min incubation) is reported as “remained unchanged”. Besides, the “melanoma cell proliferation and viability in vitro” value in series [6] (pterostilbene 15 μM, 60 min each 24 h) is “nor tumor cell proliferation neither viability were significantly affected”.
